What all share (assay type): cell-based
The target in one test is T1, RAR alpha (Homo sapiens, UniProt P10276).
T1 sequence (P10276 183-417 limits assumed): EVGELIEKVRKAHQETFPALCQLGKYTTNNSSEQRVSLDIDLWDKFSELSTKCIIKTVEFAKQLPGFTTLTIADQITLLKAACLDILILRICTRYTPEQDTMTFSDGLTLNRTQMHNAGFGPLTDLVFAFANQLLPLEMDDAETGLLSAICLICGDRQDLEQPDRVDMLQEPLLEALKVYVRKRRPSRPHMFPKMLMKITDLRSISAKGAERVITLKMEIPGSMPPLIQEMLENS
Put plainly: Transactivation test (luciferase reporter, HeLa cells), RAR alpha. The conditions noted are these: HeLa stable transfectants; for Kd: Schild regression against reference agonist 4-[2-(5,5,8,8-tetramethyl-5,6,7,8-tetrahydro-2-naphthyl)propenyl]benzoic acid, read-out: RAR alpha Kdapp; for IC50: reference ligand at the concentration that gives 80% activation. Here is the method:
(§1) The activation of receptors with an agonist (activator) in HeLa cells leads to the expression of a reporter gene, luciferase, which, in the presence of a substrate, generates light. The activation of the receptors may thus be measured by quantifying the luminescence produced after incubating the cells in the presence of a reference agonist. The inhibitory products displace the agonist from its site, thus preventing activation of the receptor. The activity is measured by quantifying the reduction in light produced. This measurement makes it possible to determine the inhibitory activity of the compounds according to the invention.
(§2) Determination of the Kdapp:
(§3) In this study, a constant is determined which represents the affinity of the molecule for the receptor. Since this value can fluctuate depending on the basal activity and the expression of the receptor, it is referred to as the Kdapparent (KdApp).
(§4) To determine this constant, “crossed curves” of the test product against a reference agonist, 4-[2-(5,5,8,8-tetramethyl-5,6,7,8-tetrahydro-2-naphthyl)propenyl]benzoic acid, are performed in 96-well plates. The test product is used at 10 concentrations and the reference agonist at 7 concentrations. In each well, the cells are in contact with a concentration of the test product and a concentration of the reference agonist, 4-[2-(5,5,8,8-tetramethyl-5,6,7,8-tetrahydro-2-naphthyl)propenyl]benzoic acid. Measurements are also taken for the total agonist (4-[2-(5,5,8,8-tetramethyl-5,6,7,8-tetrahydro-2-naphthyl)propenyl]benzoic acid) and inverse agonist, 4-{(E)-3-[4-(4-tert-butylphenyl)-5,5,8,8-tetramethyl-5,6,7,8-tetrahydro-2-naphthyl]-3-oxopropenyl}benzoic acid, controls.
(§5) These crossed curves make it possible to determine the AC50 values (concentration at which 50% activation is observed) for the reference ligand at various concentrations of test product. These AC50 values are used to calculate the Schild regression by plotting a straight line corresponding to the Schild equation (“quantitation in receptor pharmacology” Terry P. Kenakin, Receptors and Channels, 2001, 7, 371-385).
(§6) In the case of an antagonist, an IC50 value (concentration that inhibits 50% of the activity) is calculated by plotting the curve of the product at the concentration of the reference ligand that gives 80% activation.
(§7) The HeLa cell lines used are stable transfectants containing the plasmids ERE-βGlob-Luc-SV-Neo (reporter gene) and RAR (α, β, γ) ER-DBD-puro. These cells are inoculated into 96-well plates at a rate of 10 000 cells per well in 100 μl of DMEM medium without phenol red, and supplemented with 10% defatted calf serum. The plates are then incubated at 37° C. and 7% CO2 for 4 hours.
(§8) The various dilutions of the test products, of the reference ligand (4-[2-(5,5,8,8-tetramethyl-5,6,7,8-tetrahydro-2-naphthyl)propenyl]benzoic acid), of the 100% control (100 nM 4-[2-(5,5,8,8-tetramethyl-5,6,7,8-tetrahydro-2-naphthyl)propenyl]benzoic acid) and of the 0% control (500 nM 4-{(E)-3-[4-(4-tert-butylphenyl)-5,5,8,8-tetramethyl-5,6,7,8-tetrahydro-2-naphthyl]-3-oxopropenyl}benzoic acid) are added at a rate of 5 μl per well. The plates are then incubated for 18 hours at 37° C. and 7% CO2.
(§9) The culture medium is removed by turning over and 100 μl of a 1:1 PBS/luciferine mixture is added to each well. After 5 minutes, the plates are read using the luminescence detector.

For another test, the target named is T2, RAR gamma (Homo sapiens, UniProt P13631).
T2 sequence (P13631 185-419 limits assumed): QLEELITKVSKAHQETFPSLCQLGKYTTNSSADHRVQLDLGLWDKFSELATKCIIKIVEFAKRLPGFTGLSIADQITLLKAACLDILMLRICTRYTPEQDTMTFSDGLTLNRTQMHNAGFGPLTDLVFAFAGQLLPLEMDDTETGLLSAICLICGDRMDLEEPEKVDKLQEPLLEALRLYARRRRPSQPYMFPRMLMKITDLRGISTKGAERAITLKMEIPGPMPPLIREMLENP
Kind of test: Transactivation test (luciferase reporter, HeLa cells), RAR gamma. The conditions noted are these: HeLa stable transfectants; for Kd: Schild regression against reference agonist 4-[2-(5,5,8,8-tetramethyl-5,6,7,8-tetrahydro-2-naphthyl)propenyl]benzoic acid, read-out: RAR gamma Kdapp; for IC50: reference ligand at the concentration that gives 80% activation. Here is the method: as §1, §2, §3, §4, §5, §6, §7, §8, §9
Background: Reporter assays use an easily measured gene product as a stand-in for the process of interest.

The next test addresses T3, RAR beta (Homo sapiens, UniProt P10826).
T3 sequence (P10826 183-417 limits assumed): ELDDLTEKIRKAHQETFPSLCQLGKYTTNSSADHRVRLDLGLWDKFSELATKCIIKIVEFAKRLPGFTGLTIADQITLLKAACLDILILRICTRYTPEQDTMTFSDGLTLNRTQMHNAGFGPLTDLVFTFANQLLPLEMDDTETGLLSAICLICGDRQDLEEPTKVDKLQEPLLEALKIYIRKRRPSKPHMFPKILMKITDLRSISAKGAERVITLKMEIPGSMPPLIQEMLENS
Put plainly: Transactivation test (luciferase reporter, HeLa cells), RAR beta. As to conditions: HeLa stable transfectants; for Kd: Schild regression against reference agonist 4-[2-(5,5,8,8-tetramethyl-5,6,7,8-tetrahydro-2-naphthyl)propenyl]benzoic acid, read-out: RAR beta Kdapp; for IC50: reference ligand at the concentration that gives 80% activation. On the procedure: as §1, §2, §3, §4, §5, §6, §7, §8, §9

`CC1(C)CCC(C)(C)c2c(OCc3ccc(F)c(F)c3)cc([Se]C#Cc3ccc(C(=O)O)cc3)cc21` [Ex 4, 4-[4-(3,4-difluorobenzyloxy)-5,5,8,8-tetramethyl-5,6,7,8-tetrahydro-2-naphthylselanylethynyl]benzoic acid]: the Kd was 2 nM on RAR alpha, 1 nM on RAR gamma and 4 nM on RAR beta. Moreover, the IC50 against RAR alpha was 3.5 nM; against RAR gamma it was 2.5 nM; at RAR beta it was 6.4 nM.

For `CC1(C)CCC(C)(C)c2c(OCc3ccc(F)cc3)cc([Se]C#Cc3ccc(C(=O)O)cc3)cc21` [Ex 11, 4-[5,5,8,8-tetramethyl-4-(4-fluorobenzyloxy)-5,6,7,8-tetrahydro-2-naphthylselanylethynyl]benzoic acid], the Kd on RAR alpha is 8 nM; at RAR gamma, 1 nM; on RAR beta, 4 nM. In addition, the IC50 against RAR alpha came out at 14 nM; on RAR gamma, 2.5 nM; on RAR beta it was 6.4 nM.

With `CC(C)(C)c1ccc(COc2cc([Se]C#Cc3ccc(C(=O)O)cc3)cc3c2C(C)(C)CCC3(C)C)cc1` [Ex 3, 4-[4-(4-tert-butylbenzyloxy)-5,5,8,8-tetramethyl-5,6,7,8-tetrahydro-2-naphthylselanylethynyl]benzoic acid], the Kd at RAR alpha stood at 15 nM; on RAR gamma, 4 nM; on RAR beta, 30 nM. Moreover, the half-inhibitory concentration (IC50) against RAR alpha is 26.3 nM; on RAR gamma, 10 nM; at RAR beta it was 48 nM.

As to `Cc1cccc(COc2cc([Se]C#Cc3ccc(C(=O)O)cc3)cc3c2C(C)(C)CCC3(C)C)c1` [Ex 10, 4-[5,5,8,8-tetramethyl-4-(3-methylbenzyloxy)-5,6,7,8-tetrahydro-2-naphthylselanylethynyl]benzoic acid], the Kd on RAR alpha is 30 nM; on RAR gamma, 4 nM; on RAR beta it was 15 nM. Also, the figures for the IC50 against RAR alpha, at RAR gamma and at RAR beta were 52.5 nM, 10 nM and 24 nM, respectively.

`CC1(C)CCC(C)(C)c2c(OCc3cccc(F)c3)cc([Se]C#Cc3ccc(C(=O)O)cc3)cc21` [Ex 1, 4-[4-(3-fluorobenzyloxy)-5,5,8,8-tetramethyl-5,6,7,8-tetrahydro-2-naphthylselanylethynyl]benzoic acid]: the Kd on RAR alpha was found to be 8 nM; on RAR gamma it was 2 nM; on RAR beta it was 4 nM. Moreover, the IC50 at RAR alpha is 14 nM; against RAR gamma, 5 nM; on RAR beta, 6.5 nM.

Consider `CC1(C)CCC(C)(C)c2c(OCc3ccc(F)cc3F)cc([Se]C#Cc3ccc(C(=O)O)cc3)cc21` [Ex 5, 4-[4-(2,4-difluorobenzyloxy)-5,5,8,8-tetramethyl-5,6,7,8-tetrahydro-2-naphthylselanylethynyl]benzoic acid], for which the Kd at RAR alpha is 2 nM; at RAR gamma, 1 nM; at RAR beta, 1 nM. Further, the figures for the IC50 at RAR alpha, at RAR gamma and on RAR beta were 3.5 nM, 2.5 nM and 1.6 nM, respectively.

The IC50 is the concentration that gives 50% inhibition. A high value points to weaker potency in that assay.
